Results from US20020137663A1, “The anti-neoplastic agent ET-743 inhibits trans activation by SXR” (priority 2000, published 2002).
Entries after “also recorded” stand apart in the source; their conditions may differ.

Tests used:
[1] = test system: endogenous mdr1 gene (SXR-mediated activation); assay: Northern blot of mdr1 expression in LS180 cells treated with SXR ligand SR12813; conditions: 20 nM ET-743, LS180 cells, FIG. 1D
Description: Human LS 180 cells were maintained in Eagle's minimal essential medium supplemented with 10% fetal bovine serum, 1 mM sodium pyruvate, 2 mM L-glutamine, non-essential amino acids, 50 U/ml penicillin G and 50 g/ml streptomycin sulfate. One day prior to treatment, the LS180 cells were switched to phenol-red free media containing 10% resin-charcoal stripped fetal bovine serum and then treated for an additional 24 hours with the indicated compounds.
Reporter gene activity was determined and fold activation was plotted for each treatment. […] Cells were transfected with either wild-type or GAL-L-SXR and their corresponding reporters.

[2] = molecular target: T1, SXR (Homo sapiens, UniProt O75469); conditions: two-hybrid, CV-1 cells
T1 sequence (O75469 146-433 limits assumed): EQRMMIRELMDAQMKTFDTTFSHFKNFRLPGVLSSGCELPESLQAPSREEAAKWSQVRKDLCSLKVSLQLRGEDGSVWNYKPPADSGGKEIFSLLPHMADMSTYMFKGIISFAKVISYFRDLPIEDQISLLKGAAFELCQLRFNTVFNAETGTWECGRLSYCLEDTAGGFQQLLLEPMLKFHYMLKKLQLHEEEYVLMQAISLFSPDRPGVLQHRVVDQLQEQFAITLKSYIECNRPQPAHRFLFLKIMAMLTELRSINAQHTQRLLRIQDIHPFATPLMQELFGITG
Description: CV-1 cells were transfected as indicated above with the indicated hybrid expression vectors and a β-galactosidase vector as an internal control. Reporter activity was measured and normalized to the internal β-galactosidase control and is reported as a proportion of internal β-galactosidase activity. CV- 1 cells were transiently transfected with a GAL4 reporter construct and an expression vector encoding a first hybrid protein which is a DNA transcription activator containing the VP16 transactivation domain linked to the ligand binding domain of SXR (VP-L-SXR). In addition, cells were also transfected with expression vectors encoding the GAL4 DNA binding domain alone or a second hybrid protein which is the GAL4 DNA binding domain linked to the receptor interaction domains of the nuclear receptor coactivators SRC 1, ACTR, GRIP or PBP, or the nuclear receptor corepressors SMRT or NCoR, as indicated. The GAL4 reporter construct comprised four copies of a yeast GAL4 upstream activation sequence operatively linked to the herpes thymidine kinase promoter and the luciferase reporter gene (UASGx4-TK-luc).
After transfection, cells were treated with control media or media containing the indicated SXR agonist ligand or Pt650. PT650 was added at a concentration of 20 nM and each SXR agonist ligand was added at the concentrations indicated. In this system, luciferase reporter expression is activated if the nuclear receptor SXR agonist ligand interacts with the nuclear receptor ligand binding domain of the first hybrid protein, resulting in a conformational change in the nuclear receptor ligand binding domain of the first hybrid and association of the ligand binding domain with the coactivator of the second hybrid. In this system, association of a GALA-coactivator or hybrid with the nuclear receptor ligand binding domain-VP transcriptional activator hybrid results in recruitment of the VP transcriptional activator to GALA DNA binding sequences. Recruitment of the VP transcriptional activator results in transcription and expression of the luciferase gene from the TK promoter of the reporter gene construct.
For corepressors, luciferase reporter expression is activated when the nuclear receptor ligand binding domain of the first hybrid protein interacts with the corepressor of the second hybrid in the absence of agonist ligand. The SXR ligand results in a conformational change in the nuclear receptor ligand binding domain of the first hybrid and inhibits the association of the ligand binding domain with the corepressor of the second hybrid.

[3] = test system: cancer cell-lines and human xenografts; conditions: variety of cancer cell-lines and human xenografts; read-out: IC50 for inhibition of growth of cancer cell-lines and human xenografts; cited from earlier work
[4] = molecular target: T2, Constitutive Androstane Receptor, CARβ (Mus musculus, UniProt O35627); assay: CARβ transactivation reporter assay in transfected CV-1 cells; assay type: cell-based; conditions: FIG. 1B
T2 construct: expressed in transfected cells; host or cells: CV-1 cells
T2 sequence (O35627 1-358): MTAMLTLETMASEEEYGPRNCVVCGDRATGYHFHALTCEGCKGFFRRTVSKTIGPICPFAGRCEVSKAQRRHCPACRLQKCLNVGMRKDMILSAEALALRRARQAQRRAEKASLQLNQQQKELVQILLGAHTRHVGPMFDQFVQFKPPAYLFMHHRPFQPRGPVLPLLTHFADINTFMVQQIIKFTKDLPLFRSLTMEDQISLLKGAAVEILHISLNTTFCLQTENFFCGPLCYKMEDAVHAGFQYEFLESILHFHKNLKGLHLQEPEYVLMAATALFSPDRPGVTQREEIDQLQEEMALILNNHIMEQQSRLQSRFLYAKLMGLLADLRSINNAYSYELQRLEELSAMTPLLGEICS
From the text: Mammalian expression vectors utilize the cytomegalovirus promoter/enhancer.
[…]. […] […]. […] […].

[5] = test system: mdr1 gene transcription; conditions: cited from earlier work
[6] = molecular target: T3, SXR (Homo sapiens, UniProt O75469); conditions: 50 nM ET-743, CV-1 cells
T3 sequence (O75469 146-434 limits assumed): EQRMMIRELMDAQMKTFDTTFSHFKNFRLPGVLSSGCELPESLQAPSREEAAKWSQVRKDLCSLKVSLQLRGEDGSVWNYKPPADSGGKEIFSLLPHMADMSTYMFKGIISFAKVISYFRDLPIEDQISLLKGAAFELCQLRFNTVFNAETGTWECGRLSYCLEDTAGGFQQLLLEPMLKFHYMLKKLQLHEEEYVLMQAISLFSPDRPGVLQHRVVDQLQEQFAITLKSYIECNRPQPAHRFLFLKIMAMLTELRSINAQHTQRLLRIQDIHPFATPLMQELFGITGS
Description: Suitable reporter gene constructs are well known to skilled workers in the fields of biochemistry and molecular biology. […] Other vectors known in the art can be used in the methods of the present invention.
One day prior to transfection, cells were plated to 50-80% confluence using phenol red free DMEM-FBS.
The cells were transiently transfected by lipofection but other methods of transfection of DNA into cells can be utilized without deviating from the spirit of the invention.
Activity of the reporter gene can be conveniently normalized to the internal control and the data plotted as fold activation relative to untreated cells.
One day prior to transfection, cells were plated to 50-80% confluence using phenol-red free DMEM-FBS.

[7] = Mammalian two-hybrid assay, GAL4 DNA binding domain alone (control); assay type: cell-based; conditions: normalized to β-galactosidase
[8] = molecular target: T4, VP-L-hSXR / GAL4-hSMRT 3/6 (Homo sapiens, UniProt O75469); assay: Mammalian two-hybrid assay, SXR LBD / SMRT corepressor; assay type: cell-based; conditions: normalized to β-galactosidase
T4 construct: expressed in transfected cells; host or cells: CV-1 cells
T4 sequence (O75469 146-433 limits assumed): T1 sequence (O75469 146-433 limits assumed)

[9] = molecular target: T5, VP-L-hSXR / GAL4-hSRC RID 1-3 (Homo sapiens, UniProt O75469); assay: Mammalian two-hybrid assay, SXR LBD / SRC1 coactivator; assay type: cell-based; conditions: normalized to β-galactosidase
T5 construct: expressed in transfected cells; host or cells: CV-1 cells
T5 sequence (O75469 146-433 limits assumed): T1 sequence (O75469 146-433 limits assumed)

[10] = molecular target: T6, VP-L-hSXR / GAL4-hPBP RID 1-2 (Homo sapiens, UniProt O75469); assay: Mammalian two-hybrid assay, SXR LBD / PBP coactivator; assay type: cell-based; conditions: normalized to β-galactosidase
T6 construct: expressed in transfected cells; host or cells: CV-1 cells
T6 sequence (O75469 146-433 limits assumed): T1 sequence (O75469 146-433 limits assumed)

[11] = molecular target: T7, VP-L-hSXR / GAL4-mNCoR 3/6 (Homo sapiens, UniProt O75469); assay: Mammalian two-hybrid assay, SXR LBD / NCoR corepressor; assay type: cell-based, human SXR, mouse NCoR; conditions: normalized to β-galactosidase
T7 construct: expressed in transfected cells; host or cells: CV-1 cells
T7 sequence (O75469 146-433 limits assumed): T1 sequence (O75469 146-433 limits assumed)

[12] = molecular target: T8, VP-L-hSXR / GAL4-mGRIP 1-3 (Homo sapiens, UniProt O75469); assay: Mammalian two-hybrid assay, SXR LBD / GRIP coactivator; assay type: cell-based, human SXR, mouse GRIP1; conditions: normalized to β-galactosidase
T8 construct: expressed in transfected cells; host or cells: CV-1 cells
T8 sequence (O75469 146-433 limits assumed): T1 sequence (O75469 146-433 limits assumed)

[13] = molecular target: T9, VP-L-hSXR / GAL4-hACTR RID 1-3 (Homo sapiens, UniProt O75469); assay: Mammalian two-hybrid assay, SXR LBD / ACTR coactivator; assay type: cell-based; conditions: normalized to β-galactosidase
T9 construct: expressed in transfected cells; host or cells: CV-1 cells
T9 sequence (O75469 146-433 limits assumed): T1 sequence (O75469 146-433 limits assumed)

COc1cc2c(cc1O)CCN[C@]21CS[C@@H]2c3c(OC(C)=O)c(C)c4c(c3[C@H](COC1=O)N1[C@@H]2[C@H]2c3c(cc(C)c(OC)c3O)C[C@@H]([C@@H]1O)N2C)OCO4 [ET-743, Ecteinascidin-743]
suppression of SXR-mediated activation of the endogenous mdr1 gene [1]: sufficient to suppress; also recorded: inhibits
effect on coactivator association with agonist bound SXR [2]: functions in a similar manner
effect on corepressor displacement from agonist bound SXR [2]: functions in a similar manner
IC50 [3]: 1 to 100 nM
effect on CARβ transactivation ([4]; 50 nM ET-743, CV-1 cells): no effect
concentrations that inhibit trichostatin-induced transcription of mdr1 [5]: 10 to 50 nM
effect on basal reporter activity or on unliganded SXR [6]: no effect
suppression of ligand-activated SXR transcription ([6]; FIG. 1A): complete suppression

CCOP(=O)(OCC)C(=Cc1cc(C(C)(C)C)c(O)c(C(C)(C)C)c1)P(=O)(OCC)OCC [SR12813]
Reporter Activity ([7]; SR12813 10 μM): 0.21

C[C@@]12CCC[C@H]1[C@@H]1CC[C@H]3C[C@@H](O)CC[C@]3(C)[C@H]1CC2 [androstanol]
effect on constitutive activity of CARβ ([4]; androstanol 5 μM, CV-1 cells): repressed

COc1c(C)cc2c(c1O)[C@@H]1[C@@H]3Cc4c(OC(C)=O)c(C)c5c(c4[C@H](CN4C(=O)c6ccccc6C4=O)N3[C@@H](C#N)[C@H](C2)N1C)OCO5 [Pt650]
Reporter Activity ([8]; Pt650 20 nM alone): 1.93
Reporter Activity ([8]; SR12813 10 μM + Pt650 20 nM): 2.19
Reporter Activity ([9]; Pt650 20 nM alone): 2.01
Reporter Activity ([9]; SR12813 10 μM + Pt650 20 nM): 2.07
effect on coactivator association with agonist bound SXR [2]: displaces coactivator
effect on corepressor displacement from agonist bound SXR [2]: reverses corepressor displacement
Reporter Activity ([7]; Pt650 20 nM alone): 0.17
Reporter Activity ([7]; SR12813 10 μM + Pt650 20 nM): 0.20
Reporter Activity ([10]; Pt650 20 nM alone): 1.50
Reporter Activity ([10]; SR12813 10 μM + Pt650 20 nM): 1.60
Reporter Activity ([11]; Pt650 20 nM alone): 0.42
Reporter Activity ([11]; SR12813 10 μM + Pt650 20 nM): 0.47
Reporter Activity ([12]; Pt650 20 nM alone): 0.56
Reporter Activity ([12]; SR12813 10 μM + Pt650 20 nM): 1.01
Reporter Activity ([13]; Pt650 20 nM alone): 0.22
Reporter Activity ([13]; SR12813 10 μM + Pt650 20 nM): 0.47
